Laboratory results as given in PubChem BioAssay AID1963449 (Molecular Pharmacology Branch, DTP, NCI, 2024).

System: 596521-263-R-J1-PDC complex spheroid growth
Test: Anticancer human tumor 596521-263-R-J1-PDC patient-derived soft tissue sarcoma cell line growth inhibition [Asc]
Details: for IC50: curve of first compound; for viability, T/C: stronger effect = lower value; active means viability on the fitted dose curve at most 10% of control; inactive means the rest
Outline: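 Tumor cells were grown as complex spheroids with human endothelial cells (HUVEC) and human mesenchymal stem cells as stroma. Agents were tested alone and in combination, in half-log steps down from the clinical Cmax, or from 10 microM where Cmax was unknown.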
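Further: spheroids exposed to compounds for 7 days.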

O=C(c1cc(Cc2n[nH]c(=O)c3ccccc23)ccc1F)N1CCN(C(=O)C2CC2)CC1 + Cc1c(S(C)(=O)=O)c(-c2cc(F)cc(N3CCN(c4ccc(NS(=O)(=O)c5ccc(NC(CCN6CCC(C(=O)OCCCP(=O)(O)O)CC6)CSc6ccccc6)c(S(=O)(=O)C(F)(F)F)c5)cc4)CC3)c2)c(-c2ccc(Cl)cc2)n1C(C)C
1.38 µM: IC50 (second compound 3.16 µM)
5.33 µM: IC50 (second compound 1 µM)
> 10 µM: IC50 (second compound 0.0316 µM) | IC50 (second compound 0.1 µM)
< 0.0316 µM: IC50 (second compound 10 µM)
8.23 µM: IC50 (second compound 0.316 µM)
inactive: viability, T/C (second compound 0.0316 µM, first compound 0.0316 µM) 100% | viability, T/C (second compound 0.0316 µM, first compound 0.1 µM) 95.7% | viability, T/C (second compound 0.0316 µM, first compound 0.316 µM) 88.8% | viability, T/C (second compound 0.0316 µM, first compound 1 µM) 89.3% | viability, T/C (second compound 0.0316 µM, first compound 3.16 µM) 85.7% | viability, T/C (second compound 0.0316 µM, first compound 10 µM) 59.4% | viability, T/C (second compound 0.1 µM, first compound 0.0316 µM) 96.3% | viability, T/C (second compound 0.1 µM, first compound 0.1 µM) 102% | viability, T/C (second compound 0.1 µM, first compound 0.316 µM) 86.4% | viability, T/C (second compound 0.1 µM, first compound 1 µM) 98.2% | viability, T/C (second compound 0.1 µM, first compound 3.16 µM) 76.2% | viability, T/C (second compound 0.1 µM, first compound 10 µM) 54% | viability, T/C (second compound 0.316 µM, first compound 0.0316 µM) 94% | viability, T/C (second compound 0.316 µM, first compound 0.1 µM) 92.8% | viability, T/C (second compound 0.316 µM, first compound 0.316 µM) 79.5% | viability, T/C (second compound 0.316 µM, first compound 1 µM) 85.9% | viability, T/C (second compound 0.316 µM, first compound 3.16 µM) 61.2% | viability, T/C (second compound 0.316 µM, first compound 10 µM) 47.5% | viability, T/C (second compound 1 µM, first compound 0.0316 µM) 78.8% | viability, T/C (second compound 1 µM, first compound 0.1 µM) 80.1% | viability, T/C (second compound 1 µM, first compound 0.316 µM) 68.3% | viability, T/C (second compound 1 µM, first compound 1 µM) 71.2% | viability, T/C (second compound 1 µM, first compound 3.16 µM) 61% | viability, T/C (second compound 1 µM, first compound 10 µM) 37.7% | viability, T/C (second compound 3.16 µM, first compound 0.0316 µM) 61% | viability, T/C (second compound 3.16 µM, first compound 0.1 µM) 63.8% | viability, T/C (second compound 3.16 µM, first compound 0.316 µM) 55.8% | viability, T/C (second compound 3.16 µM, first compound 1 µM) 56.5% | viability, T/C (second compound 3.16 µM, first compound 3.16 µM) 35.2% | viability, T/C (second compound 3.16 µM, first compound 10 µM) 22.1% | viability, T/C (second compound 10 µM, first compound 0.0316 µM) 52.7% | viability, T/C (second compound 10 µM, first compound 0.1 µM) 46.4% | viability, T/C (second compound 10 µM, first compound 0.316 µM) 44.8% | viability, T/C (second compound 10 µM, first compound 1 µM) 43.4% | viability, T/C (second compound 10 µM, first compound 3.16 µM) 36.3% | viability, T/C (second compound 10 µM, first compound 10 µM) 16.5%
